Values of other authors in paper PMC7714071, “Interaction of amyloid beta with humanin and acetylcholinesterase is modulated by ATP” (FEBS Open Bio, 2020).

Tested on: Aβ40
Details: HN and AChE compared; cited from earlier work
Text: Amino acid residues involved in direct interactions between HN and Aβ40 were identified previously by molecular modeling. The specific epitopes at the binding interface between HN and Aβ40 were identified, by proteolytic epitope excision and extraction in addition to affinity–mass spectrometric data analysis, to be HN (5–15) and Aβ (17–28). […] Inhibiting the 17–28 region of Aβ reduced aggregation of the neurotoxic amyloid fibrils and related cytotoxicity in SH‐SY5Y, a human neuroblastoma cell ... || Humanin has been previously reported to bind amino acid residues 17–28 of Aβ (Fig. 1). AChE is also known to bind Aβ (1–16) and the Aβ (12–28) region (Fig. 1). Since the binding sites of AChE and HN on Aβ are overlapping, we previously investigated whether HN and AChE can simultaneously bind Aβ [79].

Humanin [HN]
affinity for Aβ40: comparable affinities
